Reference: ChEMBL document CHEMBL3045513, “Design, synthesis, and biological evaluation of novel 2,4-thiazolidinedione derivatives as histone deacetylase inhibitors targeting liver cancer cell line” (Med Chem Res, 2012)
Activity calls are given as the source filed them. The rule behind the calls is not given here.

Tests used:
[1] = biological target: T1, Histone deacetylase (Homo sapiens) (UniProt Q13547+O15379+Q9UBN7+Q92769+Q9UQL6+Q8WUI4+Q9BY41+Q96DB2+P56524+Q9UKV0+Q969S8); conditions: HepG2, 1 mM
Description: Inhibition of histone deacetylase in Homo sapiens (human) HepG2 cells at 1 mM after 8 hr by colorimetry

[2] = Cytotoxicity against Homo sapiens (human) WRL68 cells at 100 uM after 120 hr by MTT assay; type: cell-based; conditions: read-out: INH
[3] = biological target: T1, Histone deacetylase (Homo sapiens); assay: Inhibition of histone deacetylase in Homo sapiens (human) HepG2 nuclear extract assessed as low level acetylation of H2B at 100 uM after 8 hr by TAU PAGE analysis; type: protein assay
[4] = Cytotoxicity against Homo sapiens (human) WRL68 cells at 100 uM after 48 hr by MTT assay; type: cell-based; conditions: read-out: INH
[5] = biological target: T1, Histone deacetylase (Homo sapiens); assay: Inhibition of histone deacetylase in Homo sapiens (human) HepG2 nuclear extract assessed as hyperacetylation of H3 at 100 uM after 8 hr by TAU PAGE analysis; type: protein assay
[6] = biological target: T1, Histone deacetylase (Homo sapiens); assay: Inhibition of histone deacetylase in Homo sapiens (human) HepG2 nuclear extract assessed as low level acetylation of H2A at 100 uM after 8 hr by TAU PAGE analysis; type: protein assay
HepG2 [7] = assay: Antiproliferative activity against Homo sapiens (human) HepG2 cells assessed as elongated shaped cells; type: functional, cell-based
[8] = biological target: T1, Histone deacetylase (Homo sapiens); assay: Inhibition of histone deacetylase in Homo sapiens (human) HepG2 cells at 100 uM after 8 hr by colorimetry; type: cell-based
HepG2 [9] = assay: Antiproliferative activity against Homo sapiens (human) HepG2 cells at 100 uM after 48 hr by MTT assay; type: functional; conditions: HepG2, 48 h
HepG2 [10] = assay: Antiproliferative activity against Homo sapiens (human) HepG2 cells at 100 uM after 120 hr by MTT assay; type: functional; conditions: HepG2, 120 h
[11] = biological target: T1, Histone deacetylase (Homo sapiens); assay: Inhibition of histone deacetylase in Homo sapiens (human) HepG2 cells assessed as hyperacetylation of H3 at 100 uM after 8 hr by Western blot analysis; type: cell-based
[12] = biological target: T1, Histone deacetylase (Homo sapiens); assay: Inhibition of histone deacetylase in Homo sapiens (human) HepG2 nuclear extract assessed as hyperacetylation of H4 at 100 uM after 8 hr by TAU PAGE analysis; type: protein assay

inhibition [1] [%] | Activity [3] | Activity [5] | Activity [6] | inhibition [8] [%] | Activity [11] | Activity [12] | SMILES | cytotoxicity at 120 h, 100 µM [2] [%] | cytotoxicity at 48 h, 100 µM [4] [%] | Activity (HepG2 [7]) | inhibition at 100 µM (HepG2 [9]) [%] | inhibition at 100 µM (HepG2 [10]) [%]
52.3 |  |  |  |  |  |  | CCCC(=O)[O-].[Na+] |  |  |  |  | 
 | Active | Active | Active | 56.9 | Active | Active | O=C1CSC(=O)N1CCCCCCNS(=O)(=O)c1ccccc1 | 55.6 | 37.5 | Active | 57.3 | 69.5
 | Active | Active | Active | 42.1 | Active | Active | O=C(NCCCCCCN1C(=O)CSC1=O)c1ccccc1 | 92.3 | 34.7 | Active | 42.3 | 83
